Consider 15 compounds from patent US11634425B2, “Pharmaceutical compounds” (priority 2019, dated 2023).

Each structure is given as a SMILES string. Where two headings read alike, the source gives them in different places.

The test system of data set [1] is RSV A2. Briefly: RSV plaque reduction assay. It is filed as cell-based, respiratory syncytial virus (RSV). To be noted: human respiratory syncytial virus, HepG2, Hep-G2 cells, mean of at least two experiments. In a few lines: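 RSV A2 at 100 PFU/well was premixed with eight compound dilutions and added to confluent Hep-G2 monolayers for 2 h at 37 °C. Cells were then kept 2 days under a DMEM/2% FBS/0.8% CMC overlay containing compound. Immunostained plaques were counted relative to virus controls, and EC50 came from 4-parameter fits, averaged over at least two experiments.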

The nature of data set [2]: Cell cytotoxicity (CC50). It is filed as cell-based. To be noted: human; mean of at least two experiments. In a few lines: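 Values are means of ≥2 independent runs, rounded to whole units, from 4-parameter variable-slope curve fits. Toxicity measured in Hep-G2 cells run alongside RSV plaque-reduction assays.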
Data set [3] can be described thus: in vitro. The format is in vitro ADME. As to conditions: microsomes, pH 7.4, 1 μM compound, 0.5 mg/mL protein, read-out: Liver Microsomal Stability t1/2. As to the method: Compounds were subjected to the following assays to investigate liver microsomal stability and hepatocyte stability.
Microsomal Incubation: Experimental Procedure
Pooled liver microsomes were purchased from a reputable commercial supplier and stored at −80° C. prior to use. Microsomes (final protein concentration 0.5 mg/mL), 0.1 M phosphate buffer pH 7.4 and test compound (final substrate concentration 1 μM; final DMSO concentration 0.25%) were pre-incubated at 37° C. prior to the addition of NADPH (final concentration 1 mM) to initiate the reaction. The final incubation volume was 50 μL. A control incubation was included for each compound tested where 0.1 M phosphate buffer pH 7.4 was added instead of NADPH (minus NADPH). Two control compounds were included with each species. All incubations were performed singularly for each test compound. Each compound was incubated for 0, 5, 15, 30 and 45 min. The control (minus NADPH) was incubated for 45 min only. The reactions were stopped by transferring incubate into acetonitrile at the appropriate time points, in a 1:3 ratio. The termination plates are centrifuged at 3,000 rpm for 20 min at 4° C. to precipitate the protein. Following protein precipitation, the sample supernatants were combined in cassettes of up to 4 compounds, internal standard added, and samples analysed by LC-MS/MS. From a plot of ln peak area ratio (compound peak area/internal standard peak area) against time, the gradient of the line was determined. Subsequently, half-life (t1/2) and intrinsic clearance (CLint) were calculated.
In general terms: Liver microsomes are vesicles of endoplasmic reticulum, rich in cytochrome P450 enzymes.

As a reminder, the EC50 is the concentration at which the effect is half-maximal. As usually defined, the CC50 is the concentration that lowers cell viability or growth by half. In data set [1], `Cc1ccc(-c2nn3cccnc3c2C(=O)N[C@H]2N=C(c3ccccc3)c3ccccc3NC2=O)c(F)n1` [Example 85, 2-(2-Fluoro-6-methylpyridin-3-yl)-N-[(3S)-2-oxo-5-phenyl-1,3-dihydro-1,4-benzodiazepin-3-yl]pyrazolo[1,5-a]pyrimidine-3-carboxamide] showed an EC50 of 0.057 µM. Also, the CC50 in data set [2] was above 25 µM. Further, the half-life at 1 μM is 1.75 h in data set [3] (dog), above 2.33 h in data set [3] (human) and 3.3 h in data set [3] (rat).

`O=C(N[C@H]1N=C(c2ccccc2)c2ccccc2NC1=O)c1c(-c2ccc(NC3CC3)nc2F)nn2cccnc12` [Example 48, 2-[6-(Cyclopropylamino)-2-fluoropyridin-3-yl]-N-[(3S)-2-oxo-5-phenyl-1,3-dihydro-1,4-benzodiazepin-3-yl]pyrazolo[1,5-a]pyrimidine-3-carboxamide] gave an EC50 in data set [1] of 0.013 µM. The compound further gave a CC50 in data set [2] above 25 µM. For the same compound, the half-life at 1 μM in data set [3] (dog) amounted to 0.37 h; in data set [3] (human) it was 14.8 h; in data set [3] (rat), 3.62 h.

The compound `O=C(N[C@H]1N=C(c2ccccc2)c2cccc(F)c2NC1=O)c1c(-c2ccccc2)nc2cccnn12` [Example 107, N-[(3S)-9-fluoro-2-oxo-5-phenyl-1,3-dihydro-1,4-benzodiazepin-3-yl]-2-phenylimidazo[1,2-b]pyridazine-3-carboxamide] gave a concentration for a half-maximal effect (EC50) in data set [1] of 0.037 µM. The CC50 in data set [2] is above 25 µM. Further, the results for the half-life at 1 μM in data set [3] (dog), in data set [3] (human) and in data set [3] (rat) were 3.12 h, 4.97 h and 1.46 h, respectively.

For the compound `Cc1cnc2c(C(=O)N[C@H]3N=C(c4ccccc4)c4cccc(F)c4NC3=O)c(-c3ccccc3F)nn2c1` [Example 34, N-[(3S)-9-Fluoro-2-oxo-5-phenyl-1,3-dihydro-1,4-benzodiazepin-3-yl]-2-(2-fluorophenyl)-6-methylpyrazolo[1,5-a]pyrimidine-3-carboxamide], in data set [1], the concentration for a half-maximal effect (EC50) turned out to be 0.023 µM. This compound had a CC50 in data set [2] above 25 µM. Further, the results for the half-life at 1 μM in data set [3] (dog), in data set [3] (human) and in data set [3] (rat) were 1.44 h, above 2.33 h and 1.08 h, respectively.

In data set [1], `CN1C[C@@H]2C[C@H]1CN2c1ccc2nc(-c3ccccc3)c(C(=O)N[C@H]3N=C(c4ccccc4)c4cccc(F)c4NC3=O)n2n1` [Example 80, N-[(3S)-9-fluoro-2-oxo-5-phenyl-1,3-dihydro-1,4-benzodiazepin-3-yl]-6-[(1S,4S)-5-methyl-2,5-diazabicyclo[2.2.1]heptan-2-yl]-2-phenylimidazo[1,2-b]pyridazine-3-carboxamide] displayed an EC50 of 0.051 µM. The same compound yielded a CC50 in data set [2] of 13.8 µM. The half-life at 1 μM was determined as 2.98 h in data set [3] (dog), 2.4 h in data set [3] (human) and 1.9 h in data set [3] (rat).

With `CC(C)Nc1ccc(-c2nn3cccnc3c2C(=O)N[C@H]2N=C(c3ccccc3)c3cccc(F)c3NC2=O)c(F)n1` [Example 70, N-[(3S)-9-Fluoro-2-oxo-5-phenyl-1,3-dihydro-1,4-benzodiazepin-3-yl]-2-[2-fluoro-6-(propan-2-ylamino)pyridin-3-yl]pyrazolo[1,5-a]pyrimidine-3-carboxamide], the half-maximal effective concentration (EC50) in data set [1] turned out to be 0.023 µM. For the same compound, in data set [2], the 50% cytotoxic concentration (CC50) was above 25 µM. Also, the values for the half-life at 1 μM in data set [3] (dog), in data set [3] (human) and in data set [3] (rat) were 0.525 h, 3.45 h and 1.65 h, respectively.

The compound `O=C(N[C@H]1N=C(c2ccccc2)c2cccc(F)c2NC1=O)c1c(-c2cc(F)ccc2F)nn2cccnc12` [Example 7, 2-(2,5-Difluorophenyl)-N-[(3S)-9-fluoro-2-oxo-5-phenyl-1,3-dihydro-1,4-benzodiazepin-3-yl]pyrazolo[1,5-a]pyrimidine-3-carboxamide] registered an EC50 in data set [1] of 0.107 µM. The compound further had a CC50 in data set [2] above 25 µM. The results for the half-life at 1 μM in data set [3] (dog), in data set [3] (human) and in data set [3] (rat) were 2.5 h, 10.7 h and 2.08 h, respectively.

With `CN1CC(Oc2ccc3nc(-c4ccccc4F)c(C(=O)N[C@H]4N=C(c5ccccc5)c5cccc(F)c5NC4=O)n3n2)C1` [Example 108, N-[(3S)-9-Fluoro-2-oxo-5-phenyl-1,3-dihydro-1,4-benzodiazepin-3-yl]-2-(2-fluorophenyl)-6-(1-methylazetidin-3-yl)oxyimidazo[1,2-b]pyridazine-3-carboxamide], the EC50 in data set [1] came out at 0.084 µM. Besides, in data set [2], it took 21.9 µM to reach half-maximal cytotoxicity (CC50). Further, the half-life at 1 μM turned out to be 2.88 h in data set [3] (dog), 1.3 h in data set [3] (human) and 1.14 h in data set [3] (rat).

`O=C(N[C@H]1N=C(c2ccccc2)c2cccc(F)c2NC1=O)c1c(-c2cnc3[nH]ccc3c2)nn2cccnc12` [Example 75, N-[(3S)-9-Fluoro-2-oxo-5-phenyl-1,3-dihydro-1,4-benzodiazepin-3-yl]-2-(1H-pyrrolo[2,3-b]pyridin-5-yl)pyrazolo[1,5-a]pyrimidine-3-carboxamide] showed an EC50 in data set [1] of 0.044 µM. The same compound registered a CC50 in data set [2] above 25 µM. In addition, the half-life at 1 μM in data set [3] (dog) stood at 1.45 h; in data set [3] (human), 11.3 h; in data set [3] (rat), 0.833 h.

In data set [1], `CN1CCN(c2ccc3nc(-c4ccccc4F)c(C(=O)N[C@H]4N=C(c5ccccc5)c5cccc(F)c5NC4=O)n3n2)CC1` [Example 95, N-[(3S)-9-fluoro-2-oxo-5-phenyl-1,3-dihydro-1,4-benzodiazepin-3-yl]-2-(2-fluorophenyl)-6-(4-methylpiperazin-1-yl)imidazo[1,2-b]pyridazine-3-carboxamide] showed an EC50 of 0.093 µM. In data set [2], this compound came in with a CC50 above 21.1 µM. In addition, the half-life at 1 μM in data set [3] (dog) came to 1.11 h; in data set [3] (human), 0.948 h; in data set [3] (rat) it was 0.595 h.

On to `COc1ccc2nc(-c3cncc(C)c3)c(C(=O)N[C@H]3N=C(c4ccccc4)c4cccc(F)c4NC3=O)n2n1` [Example 118, N-[(3S)-9-fluoro-2-oxo-5-phenyl-1,3-dihydro-1,4-benzodiazepin-3-yl]-6-methoxy-2-(5-methylpyridin-3-yl)imidazo[1,2-b]pyridazine-3-carboxamide], for which a half-maximal effect in data set [1] (EC50) was put at 0.059 µM. In addition, the CC50 in data set [2] was above 25 µM. Further, the figures for the half-life at 1 μM in data set [3] (dog), in data set [3] (human) and in data set [3] (rat) were 2.38 h, 1.98 h and 0.808 h, respectively.

The compound `O=C(N[C@H]1N=C(c2ccccc2)c2cccc(F)c2NC1=O)c1c(-c2ccc(N3CCOCC3)nc2)nn2cccnc12` [Example 72, N-[(3S)-9-fluoro-2-oxo-5-phenyl-1,3-dihydro-1,4-benzodiazepin-3-yl]-2-(6-morpholin-4-ylpyridin-3-yl)pyrazolo[1,5-a]pyrimidine-3-carboxamide] registered an EC50 in data set [1] of 0.118 µM. In data set [2], this compound displayed a CC50 above 25 µM. The half-life at 1 μM turned out to be 0.857 h in data set [3] (dog), 3 h in data set [3] (human) and 2.63 h in data set [3] (rat).

In turn, `CNc1ccc(-c2nn3cccnc3c2C(=O)N[C@H]2N=C(c3ccccc3)c3ccccc3NC2=O)c(F)c1` [Example 16, 2-[2-Fluoro-4-(methylamino)phenyl]-N-[(3S)-2-oxo-5-phenyl-1,3-dihydro-1,4-benzodiazepin-3-yl]pyrazolo[1,5-a]pyrimidine-3-carboxamide] registered an EC50 in data set [1] of 0.018 µM. In data set [2], this compound came in with a CC50 above 25 µM. Also, the half-life at 1 μM was found to be 0.657 h in data set [3] (dog), 1.5 h in data set [3] (human) and 0.652 h in data set [3] (rat).

As to `Cc1ccn2nc(-c3ccc(F)cc3F)c(C(=O)N[C@H]3N=C(c4ccccc4)c4cccc(F)c4NC3=O)c2n1` [Example 36, 2-(2,4-Difluorophenyl)-N-[(3S)-9-fluoro-2-oxo-5-phenyl-1,3-dihydro-1,4-benzodiazepin-3-yl]-5-methylpyrazolo[1,5-a]pyrimidine-3-carboxamide], a half-maximal response in data set [1] (EC50) required 0.027 µM. In data set [2], this compound came in with a CC50 above 25 µM. Moreover, the results for the half-life at 1 μM in data set [3] (dog), in data set [3] (human) and in data set [3] (rat) were 3.7 h, above 2.33 h and 0.557 h, respectively.

Compound `Cc1nn2cc(-c3ccoc3)cnc2c1C(=O)N[C@H]1N=C(c2ccccc2)c2cccc(F)c2NC1=O` [Example 24, N-[(3S)-9-Fluoro-2-oxo-5-phenyl-1,3-dihydro-1,4-benzodiazepin-3-yl]-6-(furan-3-yl)-2-methylpyrazolo[1,5-a]pyrimidine-3-carboxamide] came in with a 50% effective concentration (EC50) in data set [1] of 0.104 µM. The same compound gave a CC50 in data set [2] above 25 µM. The half-life at 1 μM in data set [3] (dog) was 1.98 h; in data set [3] (human), above 2.33 h; in data set [3] (rat), 0.427 h.
